Data taken from patent US20100166804A1, “METHODS” (priority 2007, published 2010).

Key:
[1] = test system: patients with a history of bee sting allergy; test: Double-blind randomized dose-ranging bee venom challenge (Example 4); assay type: in vivo; settings: 0.5, 1 or 2 mg ketotifen orally twice daily vs placebo; bee venom challenge at two, four and six weeks
Description: (§1) To analyze hypersensitivity to bee venom, a double-blind, randomized, dose-ranging study is carried out with patients with a history of bee sting allergy manifested by urticaria, angioedema, respiratory tract symptoms or hypotension generally using the methods described in Israel et al., Am. J. Respir. Crit. Care Med., (2000) 164:75-80. Eligible patients include those with serum total IgE level of 30-1000 IU/mL and/or a positive skin-prick test to bee venom. Patients must have asthma condition under control with a forced expiratory volume in one second that is at least 80 percent of the predicted value. Patients may not take systemic corticosteroids, beta-blockers, acetylcholinesterase, aspirin, antihistamines and anti-depressants during the study.
Before enrollment, threshold level for reactivity to bee venom allergen is confirmed by a screening double-blind, placebo-controlled bee venom challenge. […] Vital signs are checked, chest auscultation is performed, and peak expiratory flow rates are monitored and bee venom specific IgE level and basal tryptase level are measured every 30 minutes during the challenge and for at least 2 hours after the last dose or the abatement of any symptoms or signs. […] The wheal size is evaluated 15 min after application. […] Patients are closely monitored for any systemic reaction. […]

[2] = test system: patients with a history of peanut allergy; test: Double-blind randomized oral food challenge with peanut flour (Example 1); assay type: in vivo; settings: 1 mg ketotifen orally twice daily vs placebo; oral food challenge at two, four and six weeks
Description: as §1, with “an allergen, e.g., peanut,” for “bee venom,”, “peanut” for “bee sting”, “peanut.” for “bee venom.”, “have taken” for “take”, “prior to and throughout” for “during”
Before enrollment, threshold level for reactivity to peanut allergen is confirmed by a screening double-blind, placebo-controlled oral food challenge. […] Vital signs are checked, chest auscultation is performed, and peak expiratory flow rates are monitored every 30 minutes during the food challenge and for at least 2 hours after the last dose or the abatement of any symptoms or signs. […]
(§2) Peak expiratory flow rates are monitored every 30 minutes during food challenge for at least 2 hours after the last does or abatement of any symptoms or signs. […]

[3] = test system: subjects with an allergy to peanut; test: Oral peanut tolerization therapy with concomitant ketotifen fumarate, randomized double-blind placebo-controlled (Example 5); assay type: in vivo, patients
Description: A study is performed to evaluate the dose-related effects of ketotifen fumarate on the scope and severity of allergic signs and symptoms resulting from concomitant oral peanut tolerization therapy. The study also evaluates the effects of discontinuation of ketotifen therapy on the scope and severity of allergic signs and symptoms resulting from concomitant oral peanut tolerization therapy after 12 or 16 weeks, while oral peanut tolerization therapy is continued. The study also evaluates the effects of ketotifen therapy on the scope and severity of allergic signs and symptoms resulting from concomitant oral peanut tolerization therapy when ketotifen dosing is initiated after 12 weeks of oral peanut tolerization therapy. The study generally consists of screening, baseline, treatment, and post-treatment follow-up periods, and is randomized, double-blind, placebo-controlled, and in parallel groups.
Patients selected are generally healthy subjects between the ages of 2 and 50 with an allergy to peanut which provokes signs and symptoms of an anaphylactic reaction. The patients may also have co-morbid atopic dermatitis and/or allergic rhinitis. If a patient is selected for the study, they are randomly assigned a treatment of 0.5 mg oral ketotifen fumarate, 2.0 mg oral ketotifen fumarate, or placebo (n=12 for each group).
During the treatment period, patients receive ketotifen fumarate or placebo for one week prior to tolerization therapy. At week 1, oral peanut tolerization therapy is begun with peanut flour, and safety evaluations are performed. The oral dose of peanut flour is increased at weeks 3, 5, 7, 9, 11 and 13, and safety evaluations are performed at that time.
At week 13, half of the patients in each of the ketotifen groups are switched in a double-blind fashion to placebo, and subjects in the placebo treatment group are switched in a double-blind fashion to receive 2.0 mg oral ketotifen. Patients continue in the study for an additional 4 weeks. At weeks 15 and 17, the peanut flour dose is increased, and safety evaluations are performed. […]

[4] = test system: patients with a history of peanut allergy; test: Double-blind randomized dose-ranging oral food challenge with peanut flour (Example 3); assay type: in vivo; settings: 0.5, 1 or 2 mg ketotifen orally twice daily vs placebo; oral food challenge at two, four and six weeks
Description: as §1, with “peanut,” for “bee venom,”, “peanut” for “bee sting”, “peanut.” for “bee venom.”
Before enrollment, threshold level for reactivity to peanut allergen is confirmed by a screening double-blind, placebo-controlled oral food challenge. Base line spirometry, peak expiratory flow rates and continuous cardiac monitoring is established. Vital signs are checked, chest auscultation is performed, and peak expiratory flow rates are monitored every 30 minutes during the food challenge and for at least 2 hours after the last dose or the abatement of any symptoms or signs. […]
as §2

[5] = patients initially receiving ketotifen, switched to placebo at week 13, final 4 weeks

CN1CCC(=C2c3ccccc3CC(=O)c3sccc32)CC1 [ketotifen]
patients' tolerance to bee venom (change from base line in log-transformed threshold dose of bee venom that induced hypersensitivity) [1]: significantly increase
patients' threshold sensitivity to peanut upon oral ingestion (change from base line in log-transformed threshold dose of peanut flour that induced hypersensitivity) [2]: significantly increase
amount of peanut flour that is well-tolerated ([3]; 0.5 mg or 2.0 mg oral ketotifen fumarate vs placebo during oral peanut tolerization therapy): tolerate more peanut flour than patients in the placebo group
escape therapy required, vs patients continuously receiving ketotifen [3, 5]: require similar escape therapy
escape therapy required, vs patients continuously receiving the placebo [3, 5]: require less escape therapy
patients' tolerance to peanut upon oral ingestion (change from base line in log-transformed threshold dose of peanut flour that induced hypersensitivity) [4]: significantly increase
